Source: patent publication US12612409B2, “Pyrrolopyrimidines as CFTR potentiators” (Cystic Fibrosis Foundation, priority 2016, dated 2026)

What was measured:
[1] = target: T1, CFTR in F508del/F508del primary CF hBE cells (Homo sapiens, UniProt P13569, DEL508-508); test: Ussing chamber electrophysiology assay of CFTR potentiation in F508del/F508del CF bronchial epithelial cells (27° C.); type: cell-based
T1 construct: Primary cystic fibrosis human bronchial epithelial (CF hBE) cells were expanded and cultured; endogenous in cells; host or cells: primary CF human bronchial epithelial cells, genotype F508del/F508del
T1 sequence (P13569 with tags, fused parts or gaps DEL508-508): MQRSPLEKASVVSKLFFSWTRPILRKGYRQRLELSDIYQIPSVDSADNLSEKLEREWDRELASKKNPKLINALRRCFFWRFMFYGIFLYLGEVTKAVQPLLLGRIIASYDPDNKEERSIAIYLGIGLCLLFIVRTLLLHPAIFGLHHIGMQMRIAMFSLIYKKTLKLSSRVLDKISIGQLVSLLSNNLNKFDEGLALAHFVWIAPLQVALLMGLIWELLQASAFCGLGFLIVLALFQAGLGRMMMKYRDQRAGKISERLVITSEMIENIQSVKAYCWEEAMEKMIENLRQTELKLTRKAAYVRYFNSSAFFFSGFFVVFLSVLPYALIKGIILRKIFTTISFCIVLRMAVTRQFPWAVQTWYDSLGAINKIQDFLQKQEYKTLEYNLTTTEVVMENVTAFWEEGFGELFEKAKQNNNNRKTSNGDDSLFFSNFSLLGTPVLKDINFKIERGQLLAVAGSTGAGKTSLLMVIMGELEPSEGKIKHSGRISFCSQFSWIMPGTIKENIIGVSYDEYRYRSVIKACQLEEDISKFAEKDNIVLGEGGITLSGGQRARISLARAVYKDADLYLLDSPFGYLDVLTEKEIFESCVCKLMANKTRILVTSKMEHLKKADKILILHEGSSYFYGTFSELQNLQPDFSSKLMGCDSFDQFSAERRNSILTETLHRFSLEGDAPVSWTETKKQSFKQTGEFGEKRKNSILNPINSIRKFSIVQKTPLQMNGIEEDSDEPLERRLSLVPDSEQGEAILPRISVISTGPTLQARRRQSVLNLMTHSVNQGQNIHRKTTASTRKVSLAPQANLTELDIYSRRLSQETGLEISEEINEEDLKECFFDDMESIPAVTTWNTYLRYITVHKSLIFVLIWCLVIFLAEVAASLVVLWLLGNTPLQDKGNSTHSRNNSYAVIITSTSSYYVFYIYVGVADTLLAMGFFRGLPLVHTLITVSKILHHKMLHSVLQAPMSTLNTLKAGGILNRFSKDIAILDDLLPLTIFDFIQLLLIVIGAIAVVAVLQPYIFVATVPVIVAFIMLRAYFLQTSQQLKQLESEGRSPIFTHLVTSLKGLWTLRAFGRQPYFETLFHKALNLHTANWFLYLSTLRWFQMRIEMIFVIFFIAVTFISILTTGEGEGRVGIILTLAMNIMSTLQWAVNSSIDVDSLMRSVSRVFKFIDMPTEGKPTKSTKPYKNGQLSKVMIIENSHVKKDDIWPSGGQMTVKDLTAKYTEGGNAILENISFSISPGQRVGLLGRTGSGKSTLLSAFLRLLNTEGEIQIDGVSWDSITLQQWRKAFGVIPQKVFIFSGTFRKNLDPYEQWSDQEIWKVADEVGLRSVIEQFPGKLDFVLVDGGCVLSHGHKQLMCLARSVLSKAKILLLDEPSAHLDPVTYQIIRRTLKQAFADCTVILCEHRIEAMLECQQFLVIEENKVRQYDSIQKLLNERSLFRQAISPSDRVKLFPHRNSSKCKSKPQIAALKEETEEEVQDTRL
Procedure, shortened: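 Well-differentiated primary CF hBE cells (>30 days air/liquid interface) in Ussing chambers, HEPES saline both sides, voltage clamped to zero. Amiloride 30 uM, forskolin 10 uM, four rising compound concentrations, then CFTRinh-172 20 uM added at 20-25 min intervals. Short-circuit current scaled to DMSO (0%) and a positive control potentiator maximum (100%).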

[2] = target: T2, recombinant F508del V470 CFTR in Fischer rat thyroid (FRT) cells (Homo sapiens, UniProt P13569, DEL508-508); test: FRT ion flux assay of F508del CFTR potentiation; type: cell-based; conditions: FRT cells expressing F508del V470 CFTR, forskolin 20 uM, 27° C. pre-incubation
T2 construct: expressed in transfected cells
T2 sequence (P13569 with tags, fused parts or gaps DEL508-508): as above
Procedure, shortened: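 FRT cells co-expressing F508del V470 CFTR and halide-sensitive YFP, temperature-corrected at 27° C for 16-24 h, then treated 30 min with compound plus 20 uM forskolin. Iodide addition quenches YFP, read after ~21 s; ratio scaled to DMSO (0%) and positive control potentiator (100%).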

| Compound | EC50 [1] [nM] | EC50 [2] [nM] |
| --- | --- | --- |
| COc1nc(C)ccc1-c1cn(Cc2cn(-c3ccccc3F)nn2)c2ncnc(N)c12 [Example 194, 7-{[1-(2-Fluorophenyl)-1H-1,2,3-triazol-4-yl]methyl}-5-(2-methoxy-6-methylpyridin-3-yl)-7H-pyrrolo[2,3-d]pyrimidin-4-amine] | 12.2 | 28.6 |
| COc1ncccc1-c1cn(Cc2ccn(-c3ccccc3F)n2)c2ncnc(N)c12 [Example 268, 7-{[1-(2-Fluorophenyl)-1H-pyrazol-3-yl]methyl}-5-(2-methoxypyridin-3-yl)-7H-pyrrolo[2,3-d]pyrimidin-4-amine] | 578 | 470 |
| CC(C)n1cc(Cn2c(C#N)c(-c3ccc(Cl)cc3)c3c(N)ncnc32)cn1 [Example 25, 4-Amino-5-(4-chlorophenyl)-7-{[1-(propan-2-yl)-1H-pyrazol-4-yl]methyl}-7H-pyrrolo[2,3-d]pyrimidine-6-carbonitrile] | 41 | 95.9 |
| CCC(c1cn(-c2ccccc2F)nn1)n1cc(-c2cc(F)cnc2OC)c2c(N)ncnc21 (single isomer, unassigned; enantiomer 2) [Example 140, (−) 5-(5-Fluoro-2-methoxypyridin-3-yl)-7-{1-[1-(2-fluorophenyl)-1H-1,2,3-triazol-4-yl]propyl}-7H-pyrrolo[2,3-d]pyrimidin-4-amine, enantiomer 2] | 63 | 171 |
| CC(c1cc(-c2ccccc2F)no1)n1cc(-c2ccc(N(C)C)cc2)c2c(N)ncnc21 (stereo not shown) [Example 105, 5-[4-(Dimethylamino)phenyl]-7-{1-[3-(2-fluorophenyl)-1,2-oxazol-5-yl]ethyl}-7H-pyrrolo[2,3-d]pyrimidin-4-amine] | 75 | 374 |
| CC(c1cn(-c2ccccc2F)nn1)n1cc(-c2cccc(C(F)(F)F)c2)c2c(N)ncnc21 (stereo not shown) [Example 97, 7-{1-[1-(2-Fluorophenyl)-1H-1,2,3-triazol-4-yl]ethyl}-5-[3-(trifluoromethyl)phenyl]-7H-pyrrolo[2,3-d]pyrimidin-4-amine] | 164 | 231 |
| Nc1ncnc2c1c(-c1ccc(Cl)cc1)cn2Cc1cc(C2CCCCC2)no1 [Example 269, 5-(4-Chlorophenyl)-7-[(3-cyclohexyl-1,2-oxazol-5-yl)methyl]-7H-pyrrolo[2,3-d]pyrimidin-4-amine] | 22.7 | 478 |
| COc1ncccc1-c1cn(C(c2cn(-c3ccccc3F)nn2)C2CC2)c2ncnc(N)c12 (stereo not shown) [Example 297, 7-{Cyclopropyl[1-(2-fluorophenyl)-1H-1,2,3-triazol-4-yl]methyl}-5-(2-methoxypyridin-3-yl)-7H-pyrrolo[2,3-d]pyrimidin-4-amine] | 40.1 | 57.5 |
| COc1ccc(-c2cn(C(C)c3cnc(-c4ccccc4F)[nH]3)c3ncnc(N)c23)c(F)c1 (stereo not shown) [Example 59, 5-(2-Fluoro-4-methoxyphenyl)-7-{1-[2-(2-fluorophenyl)-1H-imidazol-5-yl]ethyl}-7H-pyrrolo[2,3-d]pyrimidin-4-amine] | 32 | 195 |
| COc1ncccc1-c1cn(Cc2cnn(-c3c(F)cccc3F)c2)c2ncnc(N)c12 [Example 286, 7-{[1-(2,6-Difluorophenyl)-1H-pyrazol-4-yl]methyl}-5-(2-methoxypyridin-3-yl)-7H-pyrrolo[2,3-d]pyrimidin-4-amine] | 176 | 81 |
| CC(c1cn(-c2ccc(F)cc2F)nn1)n1cc(-c2cnc(C(F)(F)F)nc2)c2c(N)ncnc21 (single isomer, unassigned; enantiomer 1) [Example 123, 7-{1-[1-(2,4-Difluorophenyl)-1H-1,2,3-triazol-4-yl]ethyl}-5-[2-(trifluoromethyl)pyrimidin-5-yl]-7H-pyrrolo[2,3-d]pyrimidin-4-amine, enantiomer 1] | 50.5 | 21.6 |
| COc1ccc(-c2c(C)n(Cc3cn(-c4ccc(F)cc4F)nn3)c3ncnc(N)c23)cn1 [Example 278, 7-{[1-(2,4-Difluorophenyl)-1H-1,2,3-triazol-4-yl]methyl}-5-(6-methoxypyridin-3-yl)-6-methyl-7H-pyrrolo[2,3-d]pyrimidin-4-amine] | 152 | 219 |
| CCC(c1cn(-c2ccc(F)cc2F)nn1)n1cc(-c2cncnc2OC)c2c(N)ncnc21 (single isomer, unassigned; enantiomer 1) [Example 159, (+) 7-{1-[1-(2,4-Difluorophenyl)-1H-1,2,3-triazol-4-yl]propyl}-5-(4-methoxypyrimidin-5-yl)-7H-pyrrolo[2,3-d]pyrimidin-4-amine, enantiomer 1] | 35.5 | 18.5 |
| Nc1ncnc2c1c(-c1cnc(C(F)(F)F)nc1)cn2Cc1cnn(-c2ccccc2F)c1 [Example 57, 7-((1-(2-fluorophenyl)-1H-pyrazol-4-yl)methyl)-5-(2-(trifluoromethyl)pyrimidin-5-yl)-7H-pyrrolo[2,3-d]pyrimidin-4-amine] | 65.9 | 28.8 |
| CC(c1cn(-c2ccccc2F)nn1)n1cc(-c2ccc(OC3CC3)cc2)c2c(N)ncnc21 (stereo not shown) [Example 212, 5-[4-(Cyclopropyloxy)phenyl]-7-{1-[1-(2-fluorophenyl)-1H-1,2,3-triazol-4-yl]ethyl}-7H-pyrrolo[2,3-d]pyrimidin-4-amine] | 12.2 | 68.2 |
| CCC(c1cn(-c2ccc(F)cc2F)nn1)n1c(C#N)c(-c2cnc(C(F)(F)F)nc2)c2c(N)ncnc21 (single isomer, unassigned) [Example 16, 4-Amino-7-{1-[1-(2,4-difluorophenyl)-1H-1,2,3-triazol-4-yl]propyl}-5-[2-(trifluoromethyl)pyrimidin-5-yl]-7H-pyrrolo[2,3-d] pyrimidin-6-carbonitrile] | 9 | 6.39 |
| CC(c1cn(-c2ccccc2F)nn1)n1cc(C2CC2)c2c(N)ncnc21 (single isomer, unassigned) [Example 109, 5-Cyclopropyl-7-{1-[1-(2-fluorophenyl)-1H-1,2,3-triazol-4-yl]ethyl}-7H-pyrrolo[2,3-d]pyrimidin-4-amine] | 68.6 | 36.5 |
| CC(c1cn(-c2ccccc2F)nn1)n1cc(-c2ccc(OC3CC3)nc2)c2c(N)ncnc21 (single isomer, unassigned; enantiomer 2) [Example 120, (+) 5-[6-(Cyclopropyloxy)pyridin-3-yl]-7-{1-[1-(2-fluorophenyl)-1H-1,2,3-triazol-4-yl]ethyl}-7H-pyrrolo[2,3-d]pyrimidin-4-amine, enantiomer 2] | 5.48 | 33.4 |

More lines, in order of falling EC50 [1], values ahead:

| EC50 [1] [nM] | EC50 [2] [nM] | Compound |
| --- | --- | --- |
| 133 | 277 | CCC(c1cn(-c2ccccc2F)nn1)n1cc(-c2ccc(OC(F)F)nc2)c2c(N)ncnc21 (single isomer, unassigned; enantiomer 1) [Example 141, (−) 5-[6-(Difluoromethoxy)pyridin-3-yl]-7-{1-[1-(2-fluorophenyl)-1H-1,2,3-triazol-4-yl]propyl}-7H-pyrrolo[2,3-d]pyrimidin-4-amine, enantiomer 1] |
| 95.3 | 56.2 | COc1ncncc1-c1cn(C(c2cn(-c3ccccc3F)nn2)C2CC2)c2ncnc(N)c12 (stereo not shown) [Example 243, 7-{Cyclopropyl[1-(2-fluorophenyl)-1H-1,2,3-triazol-4-yl]methyl}-5-(4-methoxypyrimidin-5-yl)-7H-pyrrolo[2,3-d]pyrimidin-4-amine] |
| 87 | 129 | Nc1ncnc2c1c(C1CC1)cn2Cc1cnn(-c2ccccc2F)c1 [Example 317, 5-Cyclopropyl-7-{[1-(2-fluorophenyl)-1H-pyrazol-4-yl]methyl}-7H-pyrrolo[2,3-d]pyrimidin-4-amine] |
| 77.6 | 203 | CCC(c1cn(-c2cc(F)ccc2F)nn1)n1cc(-c2cc(F)cnc2OC)c2c(N)ncnc21 (single isomer, unassigned; enantiomer 2) [Example 172, 7-{1-[1-(2,5-Difluorophenyl)-1H-1,2,3-triazol-4-yl]propyl}-5-(5-fluoro-2-methoxypyridin-3-yl)-7H-pyrrolo[2,3-d]pyrimidin-4-amine, enantiomer 2] |
| 56.9 | 73.4 | COc1ccc(-c2cn(Cc3cn(-c4ccccc4F)nn3)c3ncnc(N)c23)cc1 [Example 85, 7-{[1-(2-Fluorophenyl)-1H-1,2,3-triazol-4-yl]methyl}-5-(4-methoxyphenyl)-7H-pyrrolo[2,3-d]pyrimidin-4-amine] |
| 52 | 206 | Cc1c(-c2ccc(Cl)cc2)c2c(N)ncnc2n1C(C)c1cc(-c2ccccc2F)no1 (stereo not shown) [Example 259, 5-(4-Chlorophenyl)-7-{1-[3-(2-fluorophenyl)-1,2-oxazol-5-yl]ethyl}-6-methyl-7H-pyrrolo[2,3-d]pyrimidin-4-amine] |
| 26 | 10.5 | CCC(c1cn(-c2ccccc2F)nn1)n1cc(-c2cnc(C(F)F)nc2)c2c(N)ncnc21 (single isomer, unassigned; enantiomer 1) [Example 143, 5-[2-(Difluoromethyl)pyrimidin-5-yl]-7-{1-[1-(2-fluorophenyl)-1H-1,2,3-triazol-4-yl]propyl}-7H-pyrrolo[2,3-d]pyrimidin-4-amine, enantiomer 1] |
| 1.84 | 2.76 | CC(c1cnn(-c2ccc(F)cc2F)c1)n1c(C#N)c(-c2cnc(C(F)(F)F)nc2)c2c(N)ncnc21 (single isomer, unassigned) [Example 7, 4-Amino-7-{1-[1-(2,4-difluorophenyl)-1H-pyrazol-4-yl]ethyl}-5-[2-(trifluoromethyl)pyrimidin-5-yl]-7H-pyrrolo[2,3-d] pyrimidine-6-carbonitrile] |
